Reference: patent US20240368120A1 (Terns Pharmaceuticals, Inc., priority 2023, published 2024)

Target: T1, human GLP-1R receptor (Homo sapiens, UniProt P43220)
T1 construct: expressed in transfected cells
Assay: GLP-1R low expression cell assay (cAMP TR-FRET, CHO-K1_hGLP-1Rlow_clone10 cells)
Assay type: cell-based
Conditions: for EC50: cAMP TR-FRET, 30 min at 25° C.; for Emax: maximum activation relative to control GLP-1 peptide agonist
Experimental: Stable cell lines expressing high and low GLP-1R surface expression were generated in CHO-K1 cells transfected (Fugene 6) with a puromycin selectable DNA plasmid encoding human GLP-1R receptor (accession number: NM_002062.5) under control of an EF1A promoter. Transfected cells were seeded into 24-well plates (9,000 cells/well) containing complete medium and incubated in a humidified incubator at 37° C. with 5% carbon dioxide. After overnight incubation, medium was replaced with complete medium supplemented with puromycin (6 μg/mL) and refreshed every 2-3 days to select for stably transfected cells. Individual pools of selected cells were expanded prior to analysis for responsiveness to GLP-1 control peptide using a TR-FRET assay to detect cAMP (LANCE Ultra CAMP Assay, Perkin Elmer). Briefly, cells were collected in Versene solution, plated in 384-well plates (1,000 cells/well) and combined with serially diluted GLP-IR control peptide (10 nL) using an acoustic dispenser (ECHO). Plates were incubated for 30 minutes at 25° C. prior to the addition of EU-CAMP tracer (5 μL) and Ulight-anti-CAMP (5 μL) reagents to each well, followed by 15 minutes incubation at 25° C. TR-FRET signal was detected using an En Vision Multimode Plate Reader (excitation=320 nm; emission=615 and 655 nm). Dose-response curves were used to generate EC50 values as a measure of responsiveness to the GLP-IR control peptide. Selected cell lines were monitored for responsiveness over multiple passages to ensure stability. […] Briefly, GLP-IR expression was analyzed by flow cytometry using a fluorescein-labeled Exendin-4 peptide fluorescent probe (FLEX). Cells were harvested in Versene solution and washed 3-times with PBS+0.5% BSA before incubation with FLEX reagent (10 μM) for 2 hours at room temperature. After incubation, cells were washed 3-times in PBS+0.5% BSA before final resuspension in PBS prior to analysis by flow cytometry to measure FLEX mean fluorescence intensity (MFI) as a measure of GLP-IR expression on the cell surface.
For compound testing in the CHO-K1_hGLP-IRlow_clone10 cell line, cells were seeded in 384-well plates (1,000 cells/well). Test compounds were serially diluted in DMSO (10-point, 3-fold dilution), added to wells using an ECHO dispenser (10 nL/well) and plates were centrifuged for 1 min and agitated for 2 min at room temperature prior to 30-minute incubation at 25° C. After incubation, Eu-CAMP (5 μL) and Ulight-anti-cAMP (5 μL) reagents were added to each well, followed by centrifugation for 1 minute, agitation for 2 minutes at room temperature, and final incubation of the plates at 25° C. for 15 minutes. Plates were read using an EnVision microplate reader (excitation=320 nm; emission=615 and 655 nm). Dose-response curves were generated from duplicate wells based on percent activation calculated relative to a control GLP-1 peptide agonist that was run in parallel. EC50 values were determined by fitting percent activation as a function of compound concentration using the Hill equation (XLfit).
The compounds tested were compound samples prepared according to the General Procedures described in the Examples section.

T1 sequence (P43220 24-463): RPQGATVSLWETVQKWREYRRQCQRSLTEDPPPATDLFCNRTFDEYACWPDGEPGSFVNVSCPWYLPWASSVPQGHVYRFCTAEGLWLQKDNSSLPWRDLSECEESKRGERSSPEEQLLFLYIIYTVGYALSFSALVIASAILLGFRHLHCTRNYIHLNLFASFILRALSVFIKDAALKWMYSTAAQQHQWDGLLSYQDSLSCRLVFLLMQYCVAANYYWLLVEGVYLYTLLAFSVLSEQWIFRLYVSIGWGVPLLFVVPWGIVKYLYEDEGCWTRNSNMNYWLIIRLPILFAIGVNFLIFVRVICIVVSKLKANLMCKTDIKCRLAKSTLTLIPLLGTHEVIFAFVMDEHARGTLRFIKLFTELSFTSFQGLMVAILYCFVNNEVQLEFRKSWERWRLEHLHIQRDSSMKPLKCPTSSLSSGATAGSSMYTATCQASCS

Row | EC50 [nM] | Emax [%] | Structure (SMILES)
1 | > 1000 | > 85 | C[C@]1(c2ccc(Cl)cn2)Oc2cccc(C3CCN(Cc4nc5cc(C(=O)O)c6c(c5n4C[C@@H]4CCO4)OCCO6)CC3)c2O1 [Compound 99, 2-((4-((S)-2-(5-Chloropyridin-2-yl)-2-methylbenzo[d][1,3]dioxol-4-yl)piperidin-1-yl)methyl)-1-(((S)-oxetan-2-yl)methyl)-7,8-dihydro-1H-[1,4]dioxino[2′,3′:3,4]benzo[1,2-d]imidazole-5-carboxylic acid]
2 | > 1000 | > 85 | Cn1c(CN2CCC(n3ccc(OCc4ccc(Cl)cc4F)n3)CC2)nc2c(OC(F)F)cc(C(=O)O)cc21 [Compound 217, 2-((4-(3-((4-Chloro-2-fluorobenzyl)oxy)-1H-pyrazol-1-yl)piperidin-1-yl)methyl)-4-(difluoromethoxy)-1-methyl-1H-benzo[d]imidazole-6-carboxylic acid]
3 | 10 to 100 | > 85 | Cn1c(CN2CCC(c3cccc(OCc4ccc(Cl)cc4F)n3)CC2)nc2c(OC(F)(F)CF)cc(C(=O)O)cc21 [Compound 235, 2-((4-(6-((4-Chloro-2-fluorobenzyl)oxy)pyridin-2-yl)piperidin-1-yl)methyl)-1-methyl-4-(1,1,2-trifluoroethoxy)-1H-benzo[d]imidazole-6-carboxylic acid]
4 | < 10 |  | COc1cc(C(=O)O)cc2c1nc(CN1CC[C@@H](c3cccc(OCc4ccc(C#N)cc4F)n3)[C@@H]3C[C@@H]31)n2C[C@@H]1CCO1 [Compound 387, 2-(((1S,5R,6S)-5-(6-((4-cyano-2-fluorobenzyl)oxy)pyridin-2-yl)-2-azabicyclo[4.1.0]heptan-2-yl)methyl)-4-methoxy-1-(((S)-oxetan-2-yl)methyl)-1H-benzo[d]imidazole-6-carboxylic acid]
5 | 10 to 100 | > 85 | Cn1c(CN2CCC(c3cccc(F)c3OCc3ccc(Cl)cc3F)CC2)nc2c(OC(F)F)cc(C(=O)O)cc21 [Compound 140, 2-((4-(2-((4-Chloro-2-fluorobenzyl)oxy)-3-fluorophenyl)piperidin-1-yl)methyl)-4-(difluoromethoxy)-1-methyl-1H-benzo[d]imidazole-6-carboxylic acid]
6 | 100 to 1000 | > 85 | Cn1c(CN2CCC(c3cccc(OCc4ccc(Cl)cn4)n3)CC2)nc2c(OC(F)F)cc(C(=O)O)cc21 [Compound 247, 2-((4-(6-((5-Chloropyridin-2-yl)methoxy)pyridin-2-yl)piperidin-1-yl)methyl)-4-(difluoromethoxy)-1-methyl-1H-benzo[d]imidazole-6-carboxylic acid]
7 | > 1000 | 25 to 50 | Cn1c(CN2CCC(c3cccc(CCc4ccc(Cl)cc4)n3)CC2)nc2c(OC(F)F)cc(C(=O)O)cc21 [Compound 219, 2-((4-(6-(4-chlorophenethyl)pyridin-2-yl)piperidin-1-yl)methyl)-4-(difluoromethoxy)-1-methyl-1H-benzo[d]imidazole-6-carboxylic acid]
8 | 100 to 1000 | > 85 | Cn1c(CN2CCC(c3cccc(OCc4ccc(C(F)(F)F)cn4)n3)CC2)nc2c(OC(F)F)cc(C(=O)O)cc21 [Compound 229, 4-(Difluoromethoxy)-1-methyl-2-((4-(6-((5-(trifluoromethyl)pyridin-2-yl)methoxy)pyridin-2-yl)piperidin-1-yl)methyl)-1H-benzo[d]imidazole-6-carboxylic acid]
9 | < 10 |  | COCCOc1cc(C(=O)O)cc2c1nc(CN1CCC(c3cccc4c3O[C@@](C)(c3ccc(Cl)cn3)O4)CC1)n2C [Compound 30, (S)-2-((4-(2-(5-Chloropyridin-2-yl)-2-methylbenzo[d][1,3]dioxol-4-yl)piperidin-1-yl)methyl)-4-(2-methoxyethoxy)-1-methyl-1H-benzo[d]imidazole-6-carboxylic acid]
10 | 100 to 1000 |  | Cn1c(CN2CCC(c3cccc(OCc4ccccc4F)n3)CC2)nc2c(OC(F)F)cc(C(=O)O)cc21 [Compound 251, 4-(Difluoromethoxy)-2-((4-(6-((2-fluorobenzyl)oxy)pyridin-2-yl)piperidin-1-yl)methyl)-1-methyl-1H-benzo[d]imidazole-6-carboxylic acid]
